Reference: patent US4119722A, “Method for control of fungi using 4-halo-5-aryl-1,2,3,-dithiazoles” (Chevron Research Company, priority 1977, dated 1978)

Experiments:
Fusarium moniloforma = experiment: Mycelia Inhibition; type: cell-based; conditions: 25° C., 24 hours
Description: (§1) The compounds of the present invention were evaluated for fungicidal effectiveness by means of a mycelial inhibition test. This test is designed to measure the fungitoxic acitvity of fungicidal chemicals in terms of their degree of inhibition of mycelium growth. Each compound to be tested was dissolved in acetone to 500 ppm concentration. Paper strips were innoculated with the particular mycelium growth by covering the paper with a potato dextrose broth culture of mycelial suspension. The innoculated papers were then placed on potato dextrose agar plates and sprayed by means of a micro sprayer with the fungicidal solution. The treated paper strips were incubated at 25° C. and data is taken after 24 hours. Fungicidal activities are measured by a zone of inhibited mycelial growth from the center of the paper strip. The effectiveness of the compounds tested for fungicidal activity is reported in Table VI in terms of the microgram/cm^2 for 99% control of the fungus.

Botrytis cinerea = experiment: Mycelia Inhibition; type: cell-based; conditions: 25° C., 24 hours
Description: as §1

Aspergillus niger = experiment: Mycelia Inhibition; type: cell-based; conditions: 25° C., 24 hours
Description: as §1

Rhizoctonia solani = experiment: Mycelia Inhibition; type: cell-based; conditions: 25° C., 24 hours
Description: as §1

Phytophthora infestans = experiment: whole plant or invertebrate; type: in vivo; conditions: in Solanum lycopersicum, 168 h, read-out: Tomato Late Blight, % Control
[1] = system: Pigweed (Amaranthus retroflexus); experiment: Post-emergent herbicidal test; type: in vivo; conditions: post-emergence, 504 h, 33 mcg/cm^2, 3 weeks, scale 0 (no phytotoxicity) to 100 (complete kill), read-out: Herbicidal Effectiveness
Description: (§2) Post-emergent herbicidal tests with representative compounds of this invention were made using the following method.
(§3) An acetone solution of the test compound was prepared by mixing 750 mg of the compound, 220 mg of a nonionic surfactant and 25 ml of acetone. This solution was added to approximately 125 ml of water containing 156 mg of surfactant.
(§4) This test solution was uniformly sprayed on 2 similar pots of 24-day-old plants (approximately 15 to 25 plants per pot) at a dose of 33 mcg/cm^2. After the plants had dried, they were placed in a greenhouse and then watered intermittently at their bases, as needed. The plants were observed periodically for phytotoxic effects and physiological and morphological responses to the treatment. After 3 weeks, the herbicidal effectiveness of the compound was rated based on these observations. A 0-to-100 scale was used, 0 representing no phytotoxicity and 100 representing complete kill.

Wild Oats (Avena fatua) = experiment: Post-emergent herbicidal test; type: in vivo; conditions: post-emergence, 504 h, 33 mcg/cm^2, 3 weeks, scale 0 (no phytotoxicity) to 100 (complete kill), read-out: Herbicidal Effectiveness (O)
Description: as §2, §3, §4

[2] = system: Lambsquarter (Chenopodium album); experiment: Post-emergent herbicidal test; type: in vivo; conditions: post-emergence, 504 h, 33 mcg/cm^2, 3 weeks, scale 0 (no phytotoxicity) to 100 (complete kill), read-out: Herbicidal Effectiveness (P)
Description: as §2, §3, §4

[3] = system: Crabgrass (Digitaria sanguinalis); experiment: Post-emergent herbicidal test; type: in vivo; conditions: post-emergence, 504 h, 33 mcg/cm^2, 3 weeks, scale 0 (no phytotoxicity) to 100 (complete kill), read-out: Herbicidal Effectiveness (C)
Description: as §2, §3, §4

[4] = system: Watergrass (Echinochloa Crusgalli); experiment: Post-emergent herbicidal test; type: in vivo; conditions: Echinochloa crus-galli, post-emergence, 504 h, 33 mcg/cm^2, 3 weeks, scale 0 (no phytotoxicity) to 100 (complete kill), read-out: Herbicidal Effectiveness (W)
Description: as §2, §3, §4

[5] = system: Mustard (Brassica arvensis); experiment: Post-emergent herbicidal test; type: in vivo; conditions: post-emergence, 504 h, 33 mcg/cm^2, 3 weeks, scale 0 (no phytotoxicity) to 100 (complete kill), read-out: Herbicidal Effectiveness (L)
Description: as §2, §3, §4

[6] = system: mite eggs (Tetramuchus urticae); experiment: Mite control test, mite eggs; type: in vivo; conditions: 40-ppm leaf dip, egg mortality (non-hatching eggs) 7 days after treatment
Description: (§5) Compounds of the invention were tested for the control mites and mite eggs by the following procedure. Pinto bean leaves were invested with two spotted-mites (Tetramuchus urticae). The mites were then allowed to lay eggs on the leaves. After 48 hours, the leaves were dipped into a water/acetone solution containing a small amount of a non-ionic surfactant and 40-ppm of the test compound. The treated leaves were then maintained at 85° F. One day after treatment, the mortality of adult mites was determined, and 7 days after treatment, the egg mortality (non-hatching eggs) was determined.

[7] = system: two spotted-mites (Tetramuchus urticae); experiment: Mite control test, adult mites; type: in vivo; conditions: 40-ppm leaf dip, adult mortality one day after treatment; 1440 min
Description: as §5

Septoria apii = type: in vivo; conditions: sprayed celery plants; concentration not given

SMILES | Mycelia Inhibition, for 99% control (F) (Fusarium moniloforma) [micrograms/cm^2] | Mycelia Inhibition, for 99% control (B) (Botrytis cinerea) [micrograms/cm^2] | Mycelia Inhibition, for 99% control (A) (Aspergillus niger) [micrograms/cm^2] | Mycelia Inhibition, for 99% control (R) (Rhizoctonia solani) [micrograms/cm^2] | pest or weed control at 250 µg/mL (Phytophthora infestans) [%] | pest or weed control at 33 µg/cm2 [1] [%] | pest or weed control at 33 µg/cm2 (Wild Oats (Avena fatua)) [%] | pest or weed control at 33 µg/cm2 [2] [%] | pest or weed control at 33 µg/cm2 [3] [%] | pest or weed control at 33 µg/cm2 [4] [%] | pest or weed control at 33 µg/cm2 [5] [%] | Mite Eggs Control, % [6] [%] | Mite Control, % [7] [%] | Celery Late Blight, % Control (Septoria apii) [%]
Cc1cc(C)c(N=c2ssnc2Cl)c(C)c1 [Compound 11] | > 1.7 | > 1.7 | > 1.7 | 0.98 | – | – | – | – | – | – | – | – | – | –
O=[N+]([O-])c1cccc(N=c2ssnc2Cl)c1 [Compound 8] | > 1.7 | 1.3 | > 1.7 | > 1.7 | 44 | 30 | 0 | 40 | 0 | 0 | 35 | – | – | –
Cc1ccccc1N=c1ssnc1Cl [Compound 7] | > 1.7 | > 1.7 | 0.98 | > 1.7 | – | 70 | 0 | 70 | 0 | 0 | 60 | – | – | –
Cc1cccc(C)c1N=c1ssnc1Cl [Compound 10] | – | – | – | – | – | 60 | 0 | 30 | 0 | 0 | 75 | – | – | –
Clc1nssc1=Nc1ccc2ccccc2c1 [Compound 16] | – | – | – | – | 73 | 85 | 0 | 70 | 20 | 90 | 100 | – | – | –
Cc1ccc(N=c2ssnc2Cl)cc1 [Compound 25] | > 1.7 | 0.76 | 1.5 | 0.92 | – | 90 | 30 | 45 | 35 | 55 | 100 | – | – | –
Clc1ccccc1N=c1ssnc1Cl [Compound 14] | – | – | – | – | – | 93 | 0 | 100 | 30 | 40 | 100 | 0 | 70 | –
Clc1nssc1=Nc1cccc(Br)c1 [Compound 12] | > 1.7 | > 1.7 | > 1.7 | 1.4 | – | 85 | 30 | 55 | 30 | 30 | 100 | 78 | – | –
Oc1c(Cl)cc(N=c2ssnc2Cl)cc1Cl [Compound 26] | > 1.7 | > 1.7 | > 1.7 | 1.3 | – | – | – | – | – | – | – | – | – | –
Clc1ccc(N=c2ssnc2Cl)cc1 [Compound 2] | 1.5 | – | 0.85 | 0.33 | – | 100 | 15 | 95 | 20 | 85 | 95 | – | – | –
Clc1cccc(N=c2ssnc2Cl)c1 [Compound 15] | > 1.7 | > 1.7 | > 1.7 | 0.98 | 68 | 85 | 30 | 80 | 10 | 45 | 98 | – | – | –
O=[N+]([O-])c1ccc(Oc2ccc(N=c3ssnc3Cl)cc2)cc1 [Compound 19] | > 1.7 | – | > 1.7 | 0.88 | 51 | – | – | – | – | – | – | 78 | 0 | 62
N#Cc1ccccc1N=c1ssnc1Cl [Compound 29] | – | – | – | – | – | – | – | – | – | – | – | – | – | 44
O=[N+]([O-])c1ccc(Oc2cccc(N=c3ssnc3Cl)c2)c(C(F)(F)F)c1 [Compound 17] | – | – | – | – | 62 | – | – | – | – | – | – | – | – | 56
N#Cc1cc(C(F)(F)F)ccc1Oc1cccc(N=c2ssnc2Cl)c1 [Compound 30] | – | – | – | – | – | – | – | – | – | – | – | – | – | 80
O=[N+]([O-])c1ccc(Oc2ccccc2N=c2ssnc2Cl)cc1 [Compound 20] | > 1.7 | – | > 1.7 | 1.3 | 80 | – | – | – | – | – | – | – | – | 62
Clc1nssc1=Nc1ccccc1 [Compound 1, 4-chloro-5-phenylimino-1,2,3-dithiazole] | > 1.7 | 0.33 | > 1.7 | > 1.7 | – | 85 | 0 | 70 | 20 | 10 | 80 | – | – | –
Clc1ccc(N=c2ssnc2Cl)cc1Cl [Compound 5, 4-chloro-5-(3,4-dichlorophenylimino)-1,2,3-dithiazole] | > 1.7 | – | 1.1 | > 1.7 | – | 100 | 35 | 100 | 30 | 55 | 100 | 100 | 99 | –
Fc1ccc(N=c2ssnc2Cl)cc1 [Compound 24] | – | – | – | – | – | 70 | 40 | 70 | 60 | 60 | 100 | – | – | –
